Data as given in patent publication US20260266848A1, “COMPOSITIONS AND METHODS FOR DIAGNOSING AND TREATING DYSTONIA” (Duke University, priority 2023, published 2026).

Legend:
DYT1 patient plasma = assay: Whole plasma metabolomics (Biocrates MxP Quant 500 Kit), DYT1 vs Healthy Controls; conditions: DYT1-Dystonia vs Healthy Control
Description: Duke Proteomics and Metabolomics Core Facility (DPMCF) also analyzed metabolites from 41 plasma samples using the Biocrates MxP Quant 500 Kit. Plasma from 14 subjects with DYT1 and 27 Healthy Controls was utilized.

[1] = tested on: DYT1 patient plasma derived EVs; assay: Plasma-derived EV proteomics (ExoQuick ULTRA, DIA LC/MS/MS), DYT1 vs Healthy Controls; design: species or system human; conditions: Hs. Plasma EVs (DYT1/WT); significance of genotype difference
Procedure: Data was obtained for extracellular vesicles using previously acquired samples. The ExoQuick® ULTRA EV Isolation System was used to fractionate and enrich EVs from plasma. Isolated plasma EV samples were then submitted to proteomic analysis by the Duke Proteomics and Metabolomics Core Facility (DPMCF). At the DPMCF, quantitative (LC/MS/MS) was performed on 500 ng of each sample, using an EvoSep One UPLC system coupled to a Thermo Orbitrap Astral high-resolution accurate mass tandem mass spectrometer (Thermo). Briefly, the sample was eluted directly from an Evotip which was subjected to a low organic wash and then subjected to an analytical separation using a 1.7 μm EvoSep 150 um ID×15 cm endurance (EveoSep) column running an SPD30 gradient from approximately 5 to 30% acetonitrile with 0.1% formic acid with a column temperature of 50 C. Data collection on the Orbitrap Astral mass spectrometer was performed in a data-independent acquisition (DIA) mode of acquisition with a r=240,000 (@m/z 200) full MS scan from m/z 380-980 with a target AGC value of 4e5 ions. Fixed DIA, windows of 4 m/z from m/z 380 to 980 DIA MS/MS scans were acquired in the Astral with a target AGC value of 5e4 and a max fill time of 6 ms. HCD collision energy setting of 27% was used for all MS2 scans.

DYT-TOR1A MEF EVs = assay: Quantitative LC-MS/MS proteomics of EVs from drug-treated DYT-TOR1A MEF cultures (ritonavir, salubrinal); assay type: cell-based, mouse; design: key to RTV Corrective Direction / RTV Corrective Direction, Grwd1 / RTV Corrective Direction, Srrm2 / RTV Corrective Direction, Rbm17 / RTV Corrective Direction, Dcaf8 / RTV Corrective Direction, Edil3 / RTV Corrective Direction, Timp3 / RTV Corrective Direction, Heatr3 / RTV Corrective Direction, Brd4 / RTV Corrective Direction, P3h4 / RTV Corrective Direction, Pacsin3 / RTV Corrective Direction, Naa50 / RTV Corrective Direction, Lpar6 / RTV Corrective Direction, Ndrg1 / RTV Corrective Direction, Kntc1 / RTV Corrective Direction, Cdk11b / RTV Corrective Direction, Sumo1 / RTV Corrective Direction, Lsm4 / RTV Corrective Direction, Hmga2 / RTV Corrective Direction, Cstf1 / RTV Corrective Direction, Tes / RTV Corrective Direction, Sbno1 / RTV Corrective Direction, Unc119b / RTV Corrective Direction, Cfdp1 / RTV Corrective Direction, Sec61b: YES = protein abundance effect opposite to DYT/WT; conditions: EV protein abundance; for RTV Corrective Direction: DYT + RTV (ritonavir) vs DYT, direction compared with DYT/WT; for DYT + RTV/DYT Cohen's d: ritonavir (RTV)-treated DYT vs DYT
WT MEF EVs = assay: Quantitative LC-MS/MS proteomics of EVs from ISRIB-treated WT MEF cultures; assay type: cell-based, mouse; design: key to ISRIB and DYT Parallel Direction / ISRIB and DYT Parallel Direction, Ctdsp1 / ISRIB and DYT Parallel Direction, Pcdh19 / ISRIB and DYT Parallel Direction, Tspan7 / ISRIB and DYT Parallel Direction, Myo1e / ISRIB and DYT Parallel Direction, Plpp3 / ISRIB and DYT Parallel Direction, Sh3bp4 / ISRIB and DYT Parallel Direction, Dnajc7 / ISRIB and DYT Parallel Direction, Drg1 / ISRIB and DYT Parallel Direction, Maea: YES = protein abundance effect similar to DYT/WT; conditions: EV protein abundance; for WT + ISRIB/WT Cohen's d: ISRIB-treated WT vs WT; for ISRIB and DYT Parallel Direction: WT + ISRIB vs WT, direction compared with DYT/WT

| Compound | -LogP (DYT1 patient plasma) | -LogP [1] | RTV Corrective Direction (DYT-TOR1A MEF EVs) | DYT + RTV/DYT Cohen's d (DYT-TOR1A MEF EVs) | WT + ISRIB/WT Cohen's d (WT MEF EVs) | ISRIB and DYT Parallel Direction (WT MEF EVs) |
| --- | --- | --- | --- | --- | --- | --- |
| NCCCCC(=O)O [5-AVA_Aminoacids Related] | 2.862 | – | – | – | – | – |
| N[C@@H](CC(=O)O)C(=O)O [Asp_Aminoacids] | 1.99 | – | – | – | – | – |
| N[C@@H](CSSC[C@H](N)C(=O)O)C(=O)O [Cystine_Aminoacids Related] | 2.546 | – | – | – | – | – |
| CCCCCCCCCCCCCCCCCCCCCCCCCC(=O)OC[C@@H](O)COP(=O)([O-])OCC[N+](C)(C)C [lysoPC a C26:0_Glycerophospholipids] | 2.027 | – | – | – | – | – |
| CCCCCCCCCCCCCCCCCCCCCCCCCCCC(=O)OC[C@@H](O)COP(=O)([O-])OCC[N+](C)(C)C [lysoPC a C28:0_Glycerophospholipids] | 1.585 | – | – | – | – | – |
| Cc1ccc(OS(=O)(=O)O)cc1 [p-Cresol-SO4_Cresols] | 1.433 | – | – | – | – | – |
| CRYAB | – | 1.577 | – | – | – | – |
| DLST | – | 1.928 | – | – | – | – |
| FLNA | – | 1.743 | – | – | – | – |
| Gmppb | – | – | YES | 5.38 | −2.41 | YES |
| Hdgf | – | – | YES | −0.15 | 1.97 | YES |
| Hmcn1 | – | – | YES | −3.58 | −2.25 | – |
| Huwe1 | – | – | YES | 5.04 | −3.93 | YES |
| Idh2 | – | – | YES | 23.61 | −2.01 | YES |
| Ilf2 | – | – | YES | 2.47 | −1.37 | YES |
| Itpa | – | – | YES | 12.80 | −1.25 | YES |
| Ltbp1 | – | – | YES | −3.08 | 2.17 | YES |
| Ltbp2 | – | – | YES | −5.72 | 0.70 | YES |
| MAPK3 | – | 1.682 | – | – | – | – |
| MYH9 | – | 1.313 | – | – | – | – |
| Myo18a | – | – | YES | 4.91 | 2.27 | – |
| Nes | – | – | – | 0.37 | 2.29 | YES |
| Notch3 | – | – | YES | −2.22 | 0.52 | YES |
| Nrbp1 | – | – | YES | 6.35 | 0.18 | – |

| Compound | -LogP (DYT1 patient plasma) | -LogP [1] | RTV Corrective Direction (DYT-TOR1A MEF EVs) | DYT + RTV/DYT Cohen's d (DYT-TOR1A MEF EVs) | WT + ISRIB/WT Cohen's d (WT MEF EVs) | ISRIB and DYT Parallel Direction (WT MEF EVs) |
| --- | --- | --- | --- | --- | --- | --- |
| Otub1 | – | – | YES | 5.84 | −2.26 | YES |
| Oxsr1 | – | – | YES | 5.88 | −0.72 | YES |
| PCMT1 | – | 1.506 | – | – | – | – |
| PI4KA | – | 2.66 | – | – | – | – |
| PSMC5 | – | 1.615 | – | – | – | – |
| PSME4 | – | 1.398 | – | – | – | – |
| Pgp | – | – | YES | 2.28 | −0.86 | YES |
| Prpf8 | – | – | YES | 7.95 | −0.01 | YES |
| Ptprs | – | – | YES | −5.40 | 0.13 | YES |
| RHOA | – | 1.674 | – | – | – | – |
| Rab1b | – | – | YES | 1.15 | −2.54 | YES |
| Sar1a | – | – | YES | 4.40 | −1.23 | YES |
| Spp1 | – | – | YES | −6.93 | 2.67 | YES |
| Sptan1 | – | – | YES | 3.22 | −0.40 | YES |
| Sptbn1 | – | – | YES | 3.27 | −0.82 | YES |
| Svep1 | – | – | YES | −0.40 | −0.50 | – |
| TARDBP | – | 1.352 | – | – | – | – |
| TGFB2 | – | 2.018 | – | – | – | – |
| TLN1 | – | 1.51 | – | – | – | – |
| TLN2 | – | 1.45 | – | – | – | – |
| Tardbp | – | – | YES | 0.80 | 0.28 | YES |
| Usp7 | – | – | YES | 6.89 | −1.90 | YES |
| lgf1r | – | – | YES | 0.63 | 0.75 | – |
